In patent US12636368B2, “Ionizable lipids for nucleic acid delivery” (Global Life Sciences Solutions Canada ULC, priority 2019, dated 2026):
Read-outs that look alike come from different tables or passages of the source.

What was measured:
[1] = LNP size and PDI by dynamic light scattering; type: physicochemical
Procedure, shortened: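 Hydrodynamic diameter measured by DLS with a 633 nm He/Ne laser in backscatter mode (173°), averaging 10 runs of two cycles per sample. Size reported as Z-average (harmonic intensity-averaged diameter), with polydispersity given as PDI.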

[2] = Nucleic acid encapsulation efficiency by RiboGreen assay; type: physicochemical
[3] = TNS assay, surface pKa of lipid nanoparticles; type: physicochemical
Procedure, shortened: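 Empty LNPs containing the ionizable lipid (LM02 composition, 0.781 mM total lipid before mixing) were combined with TNS in 10 mM HEPES, 10 mM MES, 10 mM NH4OAc, 130 mM NaCl buffers at pH 3–9 in 0.5 steps. Fluorescence was read at room temperature (ex 321/em 445 nm); pKa was taken as the pH of half-maximal intensity from a sigmoidal fit.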

[4] = tested on: isolated primary human T cells; experiment: GFP mRNA-LNP transfection of primary human T cells, flow cytometry; type: cell-based; conditions: for protein expression (GFP MFI) compared with MC3: FIG. 5, CT10, N/P 8, 500 ng mRNA per 125,000 cells, 3 days after activation, 48 h; for amount of protein produced (MFI) in human T cells compared with MC3: summary
Procedure: Reagents were from Stemcell Technologies unless otherwise stated. Tcells were isolated from a single donor. At 48 h following lipid particle mRNA exposure, the treated T cells were harvested by transferring the cell suspensions to pre-labeled 1.5 mL tubes and centrifuged 300×g at 4 degrees C. for 10 minutes. Supernatant was removed and the pellet resuspended in PBS. An amount of 0.5 ul of BD Horizon™ Fixable Viability Stain 575V™ (BD Biosciences), was added, and the mixture incubated in the dark for 10 minutes at RT. This stain binds to amines.
The cells were centrifuged again as before, then washed twice with 1 mL of stain buffer (BSA, BD Pharminigen), and the washed pellet was diluted in 100 μl BSA. The following antibodies were added to each tube of treated cells in 2 μl volumes: CD25, CD8, CD4, (PerCP-Cy™ 5.5 Mouse Anti Human CD25, BV786 Mouse Anti-Human CD8 Clone RPA-T8, APC-Cy™7 Mouse Anti-Human CD4 Clone SK3 (all from BD Pharmingen) with the exception of the controls: in the eGFP only sample and viability control, no antibody was added. In the single stain compensation tubes, only one antibody per tube was added.
The tubes were incubated at 4 degrees C. for 30 min, whereupon […] of stain buffer was added, and the cells were centrifuged again. Cells were washed once with 1 mL of stain buffer and spun down again as in step one. Cell pellets were resuspended in 1 mL of stain buffer and added to pre-labeled flow tubes with cell strainer caps (Corning Falcon). […]
GFP MFI was measured by flow cytometry 48 hours after LNP addition. T cells were isolated from whole blood using a negative isolation procedure (EasySep™ Human T Cell Isolation Kit, Stemcell Technologies). T cells were dosed with mRNA-LNPs 3 days after activation with 500 ng of encapsulated mRNA per 125,000 cells. The LNP were CT10 compositions with an N/P of 8. Transfection efficiency (upper graph) and MFI (lower graph) were measured by flow cytometry 48 h after LNP addition.

[5] = Table 7, EPO mRNA LNPs, LM02, N/P 6
[6] = Table 1, formulated lipid nanoparticles, TNS assay, read-out: Exp. pKa
[7] = Table 6, GFP-encoded LNPs, CT10, N/P 8

Diameter (Z. ave, nm) [1, 5] | Polydispersity Index (PDI) [1, 5] | Encapsulation Efficiency (%) [2, 5] | pKa [3, 6] | pKa ([3]; Table 8, read-out: Exp.pKa) | Diameter (Z. ave, nm) [1, 7] | Polydispersity Index (PDI) [1, 7] | Encapsulation Efficiency (%) [2, 7] | pKa ([3]; Table 5, read-out: pKa Exp.) | Compound | protein expression (GFP MFI) compared with MC3 [4] | amount of protein produced (MFI) in human T cells compared with MC3 [4] | amount of protein produced (MFIs) compared with MC3 [4] | transfection efficiency compared with MC3 ([4]; FIG. 1, eGFP mRNA LNP, CT10, N/P 10, 48 hours after treatment) | transfection efficiency compared with MC3 in various donors ([4]; FIG. 2, six donors, treated 7 days post activation, 48 hours) | viability of T cells compared to untreated cells ([4]; six-donor experiment, not shown)
86.9 nm | 0.13 | 88.2% | 6.6 | 6.6 |  |  |  |  | CCCCC/C=C\C/C=C\CCCCCCCC(=O)O[C@@H]1[C@@H](OC(=O)CCCCCCC/C=C\C/C=C\CCCCC)CO[C@@H]1COC(=O)CCCN1CCCC1 (racemic) [PNI 539] |  |  |  |  |  | 
66.9 nm | 0.02 | 96.2% | 6.09 | 6.09 | 92.6 nm | 0.16 | 92.5% |  | CCCCC/C=C\C/C=C\CCCCCCCC(=O)O[C@@H]1[C@@H](OC(=O)CCCCCCC/C=C\C/C=C\CCCCC)CO[C@@H]1COC(=O)C1CCN(C)C1 (mixture of isomers) [PNI 328] | higher levels of protein expression than MC3 | better than MC3 |  |  |  | 
70.9 nm | 0.04 | 94.4% | 5.88 | 5.88 | 74.1 nm | 0.11 | 93.2% |  | CCCCC/C=C\C/C=C\CCCCCCCC(=O)O[C@@H]1[C@@H](OC(=O)CCCCCCC/C=C\C/C=C\CCCCC)CO[C@@H]1COC(=O)C1(C)CCN(C)C1 (mixture of isomers) [PNI 329] | higher levels of protein expression than MC3 | better than MC3 | better than MC3 |  |  | 
93.5 nm | 0.10 | 98.8% | 6.83 | 6.8 | 100.7 nm | 0.16 | 87.3% | 6.83 | CCCCC/C=C\C/C=C\CCCCCCCC(=O)O[C@@H]1[C@@H](OC(=O)CCCCCCC/C=C\C/C=C\CCCCC)CO[C@@H]1COC(=O)CCCN(C)C (racemic) [PNI 121] |  | better than MC3 |  | greater than MC3 | greater than those containing clinically validated MC3 | unaffected
